From ChEMBL document CHEMBL1156554, “Aminoquinazolines as TRPV1 antagonists: modulation of drug-like properties through the exploration of 2-position substitution” (Bioorg Med Chem Lett, 2008)

Experiments:
[1] = Dissociation constant, pKa of the compound; format: physicochemical
[2] = system: Liver microsomes; experiment: Metabolic stability in human liver microsomes at 1 uM; format: ADME, Microsome
[3] = system: Liver microsomes; experiment: Metabolic stability in rat liver microsomes at 1 uM; format: ADME, Microsome
[4] = Clearance in rat at 2.7 mg/kg, iv dosed in 50% PEG-400/water; format: ADME, organism-based; set-up: dose 2.7 mg/kg, route intravenous; conditions: in vivo
[5] = Volume of distribution at steady state in rat at 2.7 mg/kg, iv dosed in 50% PEG-400/water; format: ADME, organism-based; set-up: dose 2.7 mg/kg, route intravenous; conditions: in vivo, read-out: Vdss
[6] = Half life in rat at 2.7 mg/kg, iv dosed in 50% PEG-400/water; format: ADME, organism-based; set-up: dose 2.7 mg/kg, route intravenous; conditions: in vivo
[7] = AUC (0 to infinity) in rat at 2.0 mg/kg, po dosed in 0.5% methylcellulose, 0.1% triacetin; format: ADME, organism-based; set-up: time infinity, dose 2 mg/kg, route oral; conditions: in vivo
[8] = AUC (0 to infinity) in rat at 2.0 mg/kg, po dosed in 2% D-alpha-tocopheryl polyethylene glycol 1000 succinate; format: ADME, organism-based; set-up: dose 2 mg/kg, route oral, time infinity; conditions: plasma
[9] = Tmax in rat at 2.0 mg/kg, po dosed in 0.5% methylcellulose, 0.1% triacetin; format: ADME, organism-based; set-up: dose 2 mg/kg, route oral; conditions: in vivo
[10] = Tmax in rat at 2.0 mg/kg, po dosed in 2% D-alpha-tocopheryl polyethylene glycol 1000 succinate; format: ADME, organism-based; set-up: dose 2 mg/kg, route oral; conditions: in vivo
[11] = Cmax in rat at 2.0 mg/kg, po dosed in 0.5% methylcellulose, 0.1% triacetin; format: ADME, organism-based; set-up: dose 2 mg/kg, route oral; conditions: in vivo
[12] = Cmax in rat at 2.0 mg/kg, po dosed in 2% D-alpha-tocopheryl polyethylene glycol 1000 succinate; format: ADME, organism-based; set-up: dose 2 mg/kg, route oral; conditions: in vivo
[13] = Bioavailability in rat at 2.0 mg/kg, po dosed in 0.5% methylcellulose, 0.1% triacetin; format: ADME, organism-based; conditions: in vivo
[14] = system: Rattus norvegicus; experiment: (§1) Bioavailability in rat at 2.0 mg/kg, po dosed in 2% D-alpha-tocopheryl polyethylene glycol 1000 succinate; format: ADME, organism-based; conditions: in vivo
[15] = Bioavailability in rat at […], po dosed in 0.5% methylcellulose, 0.1% triacetin; format: ADME, organism-based; conditions: in vivo
[16] = Clearance in rat at […], iv dosed in 50% PEG-400/water; format: ADME, organism-based; set-up: dose 1.5 mg/kg, route intravenous; conditions: in vivo
[17] = Volume of distribution at steady state in rat at […], iv dosed in 50% PEG-400/water; format: ADME, organism-based; set-up: dose 1.5 mg/kg, route intravenous; conditions: in vivo, read-out: Vdss
[18] = Half life in rat at […], iv dosed in 50% PEG-400/water; format: ADME, organism-based; set-up: dose 1.5 mg/kg, route intravenous; conditions: in vivo
[19] = AUC (0 to infinity) in rat at […], po dosed in 0.5% methylcellulose, 0.1% triacetin; format: ADME, organism-based; set-up: time infinity, dose 2.1 mg/kg, route oral; conditions: in vivo
[20] = Tmax in rat at […], po dosed in 0.5% methylcellulose, 0.1% triacetin; format: ADME, organism-based; set-up: dose 2.1 mg/kg, route oral; conditions: in vivo
[21] = Cmax in rat at […], po dosed in 0.5% methylcellulose, 0.1% triacetin; format: ADME, organism-based; set-up: dose 2.1 mg/kg, route oral; conditions: in vivo
[22] = as §1; format: ADME, organism-based; conditions: in vivo
[23] = Ratio of drug level in brain to plasma in rat at 3 mg/kg, po after 4 hrs; format: ADME, organism-based; set-up: dose 3 mg/kg, route oral
[24] = Clearance in rat at 1.0 mg/kg, iv dosed in 50% PEG-400/water; format: ADME, organism-based; set-up: dose 1 mg/kg, route intravenous; conditions: in vivo
[25] = Volume of distribution at steady state in rat at 1.0 mg/kg, iv dosed in 50% PEG-400/water; format: ADME, organism-based; set-up: dose 1 mg/kg, route intravenous; conditions: in vivo, read-out: Vdss
[26] = Half life in rat at 1.0 mg/kg, iv dosed in 50% PEG-400/water; format: ADME, organism-based; set-up: dose 1 mg/kg, route intravenous; conditions: in vivo
[27] = Chemical stability in 0.1 N HCl after 4 hrs; format: physicochemical; conditions: read-out: Activity

| SMILES | pKa [1] | Stability [2] | Stability [3] | AUC(0-inf) [7] [ng·h/mL] | Tmax [9] [h] | Cmax [11] [ng/mL] | other results |
| --- | --- | --- | --- | --- | --- | --- | --- |
| CC(C)OCc1nc(Nc2ccc(C(F)(F)F)nc2)c2ccc(-c3ncccc3C(F)(F)F)cc2n1 | – | Stable | Stable | – | – | – | – |
| CCOCc1nc(Nc2ccc(C(F)(F)F)nc2)c2ccc(-c3ncccc3C(F)(F)F)cc2n1 | – | Stable | Stable | – | – | – | – |
| FC(F)(F)c1ccc(Nc2nc(CN3CCOCC3)nc3cc(-c4ncccc4C(F)(F)F)ccc23)nc1 | – | Stable | Stable | – | – | – | – |
| C[C@@H]1CN(Cc2nc(Nc3ccc(C(F)(F)F)nc3)c3ccc(-c4ncccc4C(F)(F)F)cc3n2)C[C@H](C)O1 | – | – | – | 218 | 0.9 | 93 | – |
| FC(F)(F)c1ccc(Nc2ncnc3cc(-c4ncccc4C(F)(F)F)ccc23)cn1 | 3.48 | Stable | Stable | – | – | – | bioavailability [15]: 61%; clearance [16]: 22 mL/min/kg; Vd [17]: 5.5 L/kg; half-life [18]: 4.2 h; AUC(0-inf) [8]: 1450 ng·h/mL; AUC(0-inf) [19]: 982 ng·h/mL; Tmax [10]: 1.7 h; Tmax [20]: 1.8 h; Cmax [12]: 211 ng/mL; Cmax [21]: 137 ng/mL; bioavailability [22]: 94% |
| CC1CN(Cc2nc(Nc3ccc(C(F)(F)F)cc3)c3ccc(-c4ncccc4C(F)(F)F)cc3n2)CC(C)O1 (stereo not drawn) | 7.51 | – | – | – | – | – | – |
| FC(F)(F)c1ccc(Nc2ncnc3cc(-c4ncccc4C(F)(F)F)ccc23)nc1 | 3.26 | Stable | Stable | 7620 | 5.7 | 137 | remaining at 4 h [27]: 57%; clearance [16]: 4.2 mL/min/kg; Vd [17]: 12 L/kg; half-life [18]: 38 h; bioavailability [13]: 89% |
| FC(F)(F)c1ccc(Nc2nc(CCCN3CCOCC3)nc3cc(-c4ncccc4C(F)(F)F)ccc23)cc1 | 7.86 | – | – | – | – | – | – |

The next lines start with results.

| pKa [1] | Stability [2] | Stability [3] | AUC(0-inf) [7] [ng·h/mL] | Tmax [9] [h] | Cmax [11] [ng/mL] | SMILES | other results |
| --- | --- | --- | --- | --- | --- | --- | --- |
| 7.68 | – | – | – | – | – | CN1CCN(Cc2nc(Nc3ccc(C(F)(F)F)cc3)c3ccc(-c4ncccc4C(F)(F)F)cc3n2)CC1 | – |
| 4.54 | – | – | 121 | 3 | 13 | FC(F)(F)c1ccc(Nc2ncnc3cc(-c4ncccc4C(F)(F)F)ccc23)cc1 [NGD-8243] | clearance [4]: 23 mL/min/kg; Vd [5]: 13 L/kg; half-life [6]: 8 h; AUC(0-inf) [8]: 1430 ng·h/mL; Tmax [10]: 0.67 h; Cmax [12]: 101 ng/mL; bioavailability [13]: 8%; F [14]: 99% |
| 3.7 | – | – | 3250 | 3.7 | 215 | COCc1nc(Nc2ccc(C(F)(F)F)cc2)c2ccc(-c3ncccc3C(F)(F)F)cc2n1 | Kp at 4 h [23]: 1.8; clearance [24]: 5.3 mL/min/kg; Vd [25]: 3.5 L/kg; half-life [26]: 6.9 h; bioavailability [13]: 50% |
